Reference: article PMC12595434, “Development of retinoid nuclear receptor pathway antagonists through targeting aldehyde dehydrogenase 1A3” (iScience, 2025)

How the values were obtained:
[1] = molecular target: T1, human ALDH1A2 (Homo sapiens, UniProt O94788); assay: Recombinant enzyme activity assay; format: biochemical; settings: dose titration, up to 10 μM
T1 construct: made in house; host or cells: BL21-DE3 E. coli
T1 sequence (O94788 1-518): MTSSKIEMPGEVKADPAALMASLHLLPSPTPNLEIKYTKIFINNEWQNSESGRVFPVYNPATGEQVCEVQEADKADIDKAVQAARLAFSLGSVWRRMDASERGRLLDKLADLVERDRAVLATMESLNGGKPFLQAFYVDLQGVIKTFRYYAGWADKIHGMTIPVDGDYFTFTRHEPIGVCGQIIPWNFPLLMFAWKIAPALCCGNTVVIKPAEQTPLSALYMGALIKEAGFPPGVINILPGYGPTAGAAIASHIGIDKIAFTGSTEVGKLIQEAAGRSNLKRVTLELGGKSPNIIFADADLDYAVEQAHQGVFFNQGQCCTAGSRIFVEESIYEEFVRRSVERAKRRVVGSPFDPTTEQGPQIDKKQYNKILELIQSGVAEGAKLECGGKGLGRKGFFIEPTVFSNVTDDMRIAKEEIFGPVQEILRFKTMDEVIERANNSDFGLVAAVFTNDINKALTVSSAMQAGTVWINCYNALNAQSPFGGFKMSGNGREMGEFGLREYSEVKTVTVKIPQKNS
Description: (§1) Human and mouse ALDH enzymes were cloned from respective reference RNA, constructed into plasmids using restriction enzyme cloning and confirmed by Sanger Sequencing. Genes were cloned into a vector containing the T7 promoter for bacterial expression and into a lentiviral expression vector for cell line expression as previously described.[78] Recombinant protein was isolated by inducing BL21-DE3 E. coli (Thermo Fisher) containing the respective plasmid for 20 h at room temperature, shaking, with 300 μM IPTG (Selleck Chem). Cell disruption was achieved via ultrasonication (Φ10, 3s on/6s off, 25min) in 1L of amplified bacterial culture. The target protein was then purified using Ni NTA beads 6FF affinity chromatography. Lysis buffer consisted of 50 mM Na2HPO4, 300 mM NaCl, 1 mM β-ME, pH7.5. The column (2 mL) was washed with 50 mM Na2HPO4, 300 mM NaCl, 1 mM β-ME, 20 mM Imidazole, pH7.5. Elution was performed using 3 mL of 50 mM Na2HPO4, 300 mM NaCl, 1 mM β-ME, 250 mM Imidazole, pH7.5. Following affinity chromatography, the protein underwent further purification via Gel filtration chromatography using a Superdex200 column. Aliquots were quality controlled against a pure internal standard enzyme and/or by western blot to confirm enzyme expression. Purified enzyme was used for biochemical and biophysical assays.
(§2) For the recombinant enzyme activity assay, enzyme aliquots were thawed on ice for 4 h prior to analysis and the protocol was performed as described[8] with the following key changes: 1) Final concentrations of NAD+ (Gold Bio) were 200 μM and BSA were 1 mg/mL 2) Propanaldehyde was used as the substrate for ALDH1A1 and ALDH2. 3) Reaction velocity was monitored through diaphorase (clostridium) coupled reduction of resazurin (100 μM) monitored with ex/em of 560nm/590 nm in order to regenerate NAD+ and thus maintain constant cofactor concentration as well as to avoid high absorbance values of many screening compounds at the NADH absorbance. Assays were conducted at room temperature (controlled to 21-23C) and all buffers were maintained at pH 7.5. For all reactions, pre-incubation time was approximately 2 min while the reaction monitoring was performed over 10 min.

[2] = molecular target: T2, mouse ALDH1A3 (Mus musculus, UniProt Q9JHW9); assay: Recombinant enzyme activity assay; format: biochemical; settings: dose titration, substrate competition assay, recombinant mouse ALDH1A3, 4-parameter equation; read-out: muALDH1A3 IC50
T2 construct: made in house; host or cells: BL21-DE3 E. coli
T2 sequence (Q9JHW9 1-512): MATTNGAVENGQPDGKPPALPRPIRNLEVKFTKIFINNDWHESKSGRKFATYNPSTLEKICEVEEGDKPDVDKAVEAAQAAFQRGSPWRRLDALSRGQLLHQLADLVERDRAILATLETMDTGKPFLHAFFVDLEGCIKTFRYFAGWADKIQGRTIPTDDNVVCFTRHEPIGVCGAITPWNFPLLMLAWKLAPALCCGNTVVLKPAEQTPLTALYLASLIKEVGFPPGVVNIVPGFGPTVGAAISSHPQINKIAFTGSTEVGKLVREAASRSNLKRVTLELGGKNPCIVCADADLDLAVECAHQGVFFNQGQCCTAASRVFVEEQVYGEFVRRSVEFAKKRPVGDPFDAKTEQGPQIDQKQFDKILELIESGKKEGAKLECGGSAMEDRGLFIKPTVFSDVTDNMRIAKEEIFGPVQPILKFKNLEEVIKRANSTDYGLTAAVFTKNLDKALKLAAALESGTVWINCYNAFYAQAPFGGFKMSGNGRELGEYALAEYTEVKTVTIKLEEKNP
Description: as §1, §2

[3] = molecular target: T3, human ALDH1A3 in A375 cells (Homo sapiens, UniProt P47895); assay: Aldefluor assay in A375 cells; format: cell-based; settings: for activity in Aldefluor assay, A375 cells (in words): up to 10 μM
T3 construct: the cell lines with high endogenous ALDH1A3 activity: MDA-MB-468 (triple-negative breast cancer), A375 (melanoma), and LN229 (glioblastoma); endogenous in cells; host or cells: A375
T3 sequence (P47895 1-512): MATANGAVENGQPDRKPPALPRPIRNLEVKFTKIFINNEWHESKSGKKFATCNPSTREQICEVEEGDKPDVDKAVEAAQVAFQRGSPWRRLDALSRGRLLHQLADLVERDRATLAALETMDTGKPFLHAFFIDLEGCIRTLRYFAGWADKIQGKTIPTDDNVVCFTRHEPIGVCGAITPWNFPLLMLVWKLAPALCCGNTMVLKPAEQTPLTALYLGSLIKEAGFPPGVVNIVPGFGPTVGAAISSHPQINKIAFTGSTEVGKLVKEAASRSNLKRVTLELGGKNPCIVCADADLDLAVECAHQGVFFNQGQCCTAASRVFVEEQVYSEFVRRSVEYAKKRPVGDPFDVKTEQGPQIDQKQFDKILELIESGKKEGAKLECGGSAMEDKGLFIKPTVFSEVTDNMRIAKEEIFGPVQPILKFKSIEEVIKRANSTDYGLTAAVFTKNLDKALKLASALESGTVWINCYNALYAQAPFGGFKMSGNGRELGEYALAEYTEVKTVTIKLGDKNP

[4] = test system: LN229 cells; assay: Aldefluor assay in LN229 cells; format: cell-based, human; settings: 1 mM DEAB, negative control gate
Description: (§3) In addition, cells were suspended at a concentration of 100,000 cells per mL. Finally, DMSO was added to at 1% final in all cells to improve kinetics of the assay. For compound titrations, concentrated compound stock was added first to tubes and a uniform Aldefluor buffer containing the cell suspension was added to dilute to final volumes. Cells were analyzed by a BD LSRII for flow cytometry and were sorted using a FACSAria Fusion cell sorter (BD Biosciences) equipped with a 70 micron nozzle. Sample and sort collection tubes were kept at 4°C. […] DAPI was used as a live-dead indicator.

[5] = test system: MDA-MB-468 cells; assay: Aldefluor assay in MDA-MB-468 cells; format: cell-based, human; settings: 1 mM DEAB, negative control gate
Description: as §3

[6] = test system: NCI-H358 cells; assay: Aldefluor assay in NCI-H358 cells; format: cell-based, human; settings: 1 mM DEAB, negative control gate
Description: as §3

[7] = test system: MCF7 cells; assay: Aldefluor assay in MCF7 cells; format: cell-based, human; settings: 1 mM DEAB, negative control gate
Description: as §3

[8] = test system: MDA-MB-231 cells; assay: Aldefluor assay in MDA-MB-231 cells; format: cell-based, human; settings: 1 mM DEAB, negative control gate
Description: as §3

[9] = molecular target: T4, ALDH1A3 (Homo sapiens, UniProt P47895); assay: Recombinant enzyme activity assay; format: biochemical; set-up: made in house; host or cells: BL21-DE3 E. coli; settings: dose titration; for inhibitory activity against ALDH1A3 (in words): up to 10 μM
T4 sequence (P47895 1-512): T3 sequence (P47895 1-512)
Description: We then tested each published ALDH inhibitor against the three human ALDH1A enzymes to assess inhibitory activity and isozyme selectivity.
Recombinant protein was isolated by inducing BL21-DE3 E. coli (Thermo Fisher) containing the respective plasmid for 20 h at room temperature, shaking, with 300 μM IPTG (Selleck Chem). […] The target protein was then purified using Ni NTA beads 6FF affinity chromatography. Lysis buffer consisted of 50 mM Na2HPO4, 300 mM NaCl, 1 mM β-ME, pH7.5. The column (2 mL) was washed with 50 mM Na2HPO4, 300 mM NaCl, 1 mM β-ME, 20 mM Imidazole, pH7.5. Elution was performed using 3 mL of 50 mM Na2HPO4, 300 mM NaCl, 1 mM β-ME, 250 mM Imidazole, pH7.5. Following affinity chromatography, the protein underwent further purification via Gel filtration chromatography using a Superdex200 column. […] Purified enzyme was used for biochemical and biophysical assays.

[10] = molecular target: T5, human ALDH1A1 (Homo sapiens, UniProt P00352); assay: Recombinant enzyme activity assay; format: biochemical; settings: dose titration, up to 10 μM
T5 construct: made in house; host or cells: BL21-DE3 E. coli
T5 sequence (P00352 1-501): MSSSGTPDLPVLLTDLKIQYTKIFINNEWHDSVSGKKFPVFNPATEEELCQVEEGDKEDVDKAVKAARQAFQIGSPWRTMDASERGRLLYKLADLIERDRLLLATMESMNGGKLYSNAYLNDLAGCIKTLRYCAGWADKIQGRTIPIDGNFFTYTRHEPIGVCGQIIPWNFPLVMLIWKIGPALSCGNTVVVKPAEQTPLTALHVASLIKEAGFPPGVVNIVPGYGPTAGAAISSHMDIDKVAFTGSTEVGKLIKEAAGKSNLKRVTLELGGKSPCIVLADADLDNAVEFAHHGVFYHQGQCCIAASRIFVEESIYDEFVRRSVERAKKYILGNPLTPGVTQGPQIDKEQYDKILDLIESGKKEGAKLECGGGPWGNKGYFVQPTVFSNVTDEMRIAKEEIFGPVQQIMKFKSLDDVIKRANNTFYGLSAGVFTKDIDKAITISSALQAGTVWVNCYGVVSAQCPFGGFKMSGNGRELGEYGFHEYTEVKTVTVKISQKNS

[11] = molecular target: T6, ALDH1A1 in HepG2 cells (Homo sapiens, UniProt P00352); assay: Aldefluor assay in HepG2 cells; format: cell-based; settings: 45 min incubation at 37°C
T6 construct: endogenous in cells; host or cells: HepG2
Description: as §3

[12] = test system: MDA-MB-468 cells; settings: MDA-MB-468, 24 hour incubation, highest tested dose 10 μM
[13] = test system: ALDH1A3; settings: read-out: reported IC50 for ALDH1A3; cited from earlier work
[14] = test system: ALDH1A3 cells; settings: cited from earlier work
[15] = test system: HaCaT cells; assay: Dose-titration cytotoxicity analysis; settings: 24 hour incubation, highest tested dose 10 μM
[16] = test system: GABAA

Structure (SMILES): CCN(CC)c1ccc(C=O)cc1 [DEAB, 4-diethylaminobenzaldehyde]
- inhibitory activity against ALDH1A2 (in words) [1]: moderate
- IC50 [2]: 1380 nM
- ALDH^+ ([3]; 1 mM DEAB, negative control gate, A375): 0.32
- activity in Aldefluor assay, A375 cells (in words) [3]: showed activity
- ALDH^+ [4]: 0.19
- ALDH^+ [5]: 0.22
- ALDH^+ [6]: 0.53
- ALDH^+ [7]: 1.77
- ALDH^+ [8]: 0.42
- IC50 ([9]; substrate competition assay, recombinant human ALDH1A3, 4-parameter equation, read-out: huALDH1A3 IC50): 23100 nM
- inhibitory activity against ALDH1A3 (in words) [9]: weak

Structure (SMILES): CSC(=O)C#CC(C)(C)N(C)C [DIMATE, S-methyl 4-(dimethylamino)-4-methyl-pent-2-ynethioate]
- inhibitory activity against ALDH1A2 (in words) [1]: did not show any activity
- inhibitory activity against ALDH1A1 (in words) [10]: did not show any activity
- activity in Aldefluor assay, A375 cells (in words) [3]: no dose-dependent inhibition of activity
- inhibition at 10 µM [11]: 13%
- inhibitory activity against ALDH1A3 (in words) [9]: did not show any activity

Structure (SMILES): c1ccc(-c2ccc3nc(-c4ccccc4)cn3c2)cc1 [GA11]
- inhibitory activity against ALDH1A2 (in words) [1]: no activity up to 10 μM
- inhibitory activity against ALDH1A1 (in words) [10]: no activity up to 10 μM
- nonspecific cytotoxicity (in words) [12]: potent cytotoxicity above 100 nM
- IC50 [13]: 660 nM
- reported cytotoxic activity against ALDH1A3 cells (in words) [14]: picomolar
- nonspecific cytotoxicity (in words) [15]: potent cytotoxicity above 100 nM
- inhibitory activity against ALDH1A3 (in words) [9]: no ALDH1A3 inhibitory activity up to 10 μM

Structure (SMILES): CCOC(=O)c1ncn2c1CN(C)C(=O)c1cc(F)ccc1-2 [flumazenil]
- inhibition [16]: 95.9%
